Results as given in patent US9682978B2, “2,6,7 substituted purines as HDM2 inhibitors” (Merck Sharp & Dohme Corp., priority 2013, dated 2017).
pIC50: −log10 of the molar value.

Biological target: T1, HDM2 (Homo sapiens, UniProt Q00987)
T1 construct: Thioredoxin (N); made in house; host or cells: E. coli BL21(DE3)Rosetta (pET32a)
Experiment: HDM2 FRET assay (inhibition of p53 peptide binding to HDM2)
Details: for pIC50: truncated HDM2 residues 17 to 125, 0.5 nM HDM2, 3 nM FITC labeled 8-mer peptide, two hour incubation
Description: Methods: An HDM2 FRET assay was developed to assess the compounds' inhibitory activity towards binding of p53 protein. A truncated version of HDM2 with residues 17 to 125 (containing p53 binding surface, Science (1994) 265, 346-355), with N-terminal His and Thioredoxin tag was generated in pET32a expression vector and expressed in E. coli strain BL21(DE3)Rosetta. Protein was purified using Ni-affinity chromatography, followed by size exclusion chromatography using Superdex 75 26/60 column. To assess inhibition of p53 binding to HDM2, a FITC labeled 8-mer peptide (sequence: Ac-Phe-Arg-Dpr-Ac6c-(6-Br)Trp-Glu-Glu-Leu-NH2; Anal Biochem. 2004 Aug. 1; 331(1):138-46) with strong affinity towards p53 binding pocket of HDM2 was used. The HDM2 assay buffer contained 1× Phosphate Buffered Saline (Invitrogen, Cat#14190), 0.01% BSA (Jackson ImmunoResearch, Cat#001-000-162), 0.01% Tween-20. In the 1× assay buffer recombinant HDM2 protein, peptide and Lumi4-Tb Cryptate-conjugate mouse anti-6×HIS antibody (cisbio, Cat#Tb61HISTLB) were added and transferred to ProxiPlate PLUS (PerkinElmer, Cat#6008269), containing compounds so that final DMSO concentration is 0.1%. Final concentrations of reagents in the assay wells are 0.5 nM HDM2, 0.25 nM anti HIS (Tb label) antibody and 3 nM peptide. After two hour incubation at room temperature in a humidified chamber plates were read on EnVision plate reader with the following settings: excitation: UV, […], two emission filters: 520 nm and 495 nm respectively. Ratio of em520/em495 was used to calculate % inhibition and to obtain IC50 with 4-parameter logistic equation.
IC50 DETERMINATIONS: Dose-response curves were plotted from the inhibition data, from 10 point serial dilutions of inhibitory compounds. Concentration of compound was plotted against em520/Cem495 ratio signal. To generate IC50 values, the dose-response curves were fitted to a standard sigmoidal curve and IC50 values were derived by nonlinear regression analysis. IC50 values in the above table are rounded to the nearest integer.

T1 sequence (Q00987 17-125): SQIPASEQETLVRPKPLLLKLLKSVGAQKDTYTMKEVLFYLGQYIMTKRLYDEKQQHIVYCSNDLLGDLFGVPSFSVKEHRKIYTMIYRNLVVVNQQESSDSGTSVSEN

| SMILES | pIC50 (Table 2) | also measured |
| --- | --- | --- |
| C[C@H]1CC[C@H](Cn2cnc3nc(-c4noc(=O)[nH]4)nc(-c4cncc(Cl)c4)c32)CC1 [Example 2.12, 3-{6-(5-chloropyridin-3-yl)-7-[(trans-4-methylcyclohexyl)methyl]-7H-purin-2-yl}-1,2,4-oxadiazol-5(4H)-one] | 7.07 |  |
| Cc1ncc(Cl)cc1-c1nc(-c2noc(=O)[nH]2)nc2ncn(C[C@H]3CC[C@H](C)CC3)c12 [Example 2.21, 3-{6-(5-chloro-2-methylpyridin-3-yl)-7-[(trans-4-methylcyclohexyl)methyl]-7H-purin-2-yl}-1,2,4-oxadiazol-5(4H)-one] | 7.06 |  |
| C[C@@H](Nc1nc(C(=O)O)nc2ncn(Cc3ccc(C(F)(F)F)cc3)c12)C1CCC1 [Example 1.13, 6-{[(1R)-1-cyclobutylethyl]amino}-7-[4-(trifluoromethyl)benzyl]-7H-purine-2-carboxylic acid] |  | pIC50 (Table 1): 7.09 |
| C[C@@H](Nc1nc(-c2noc(=O)[nH]2)nc2ncn(C[C@H]3CC[C@H](C)CC3)c12)C1CCC1 [Example 1.7, 3-(6-{[(1R)-1-cyclobutylethyl]amino}-7-[(trans-4-methylcyclohexyl)methyl]-7H-purin-2-yl)-1,2,4-oxadiazol-5(4H)-one] |  | pIC50 (Table 1): 7.29 |
| C[C@H]1CC[C@H](Cn2cnc3nc(-c4noc(=O)[nH]4)nc(-c4cc(Cl)ccc4O)c32)CC1 [Example 2.5, 3-{6-(5-chloro-2-hydroxyphenyl)-7-[(trans-4-methylcyclohexyl)methyl]-7H-purin-2-yl}-1,2,4-oxadiazol-5(4H)-one] | 6.07 |  |
| CC1CCCN(c2nc(-c3noc(=O)[nH]3)nc3ncn(C[C@H]4CC[C@H](C)CC4)c23)C1 (stereo partly drawn) [Example 1.11, 3-{7-[(trans-4-methylcyclohexyl)methyl]-6-(3-methylpiperidin-1-yl)-7H-purin-2-yl}-1,2,4-oxadiazol-5(4H)-one] |  | inhibition at 1 µM (Table 1, printed in the FRET IC50 column, at 1000 nM compound): 43% |
| C[C@H]1CC[C@H](Cn2cnc3nc(C(=O)O)nc(-c4cncc(Cl)c4)c32)CC1 [Example 2.20, 6-(5-chloropyridin-3-yl)-7-[(trans-4-methylcyclohexyl)methyl]-7H-purine-2-carboxylic acid] | 6.67 |  |
